Experimental data published in patent publication US7695731B2 (Cordis Corporation, priority 2004, dated 2010).
pIC50: −log10 of the molar value.

Key:
[1] = test system: human coronary artery smooth muscle cells; experiment: Anti-proliferative activity in non-synchronized cultured cells stimulated with two percent fetal bovine serum; format: cell-based; details: for effect of addition on the anti-proliferative rapamycin dose response curve: non-synchronized cells treated with rapamycin, two percent fetal bovine serum
Description: The multiple curves represent various concentrations of mycophenolic acid ranging from zero to one thousand nanomolar concentrations.
The multiple curves represent various concentrations of cladribine ranging from zero to nine hundred nanomolar concentrations.

[2] = In vivo release kinetics from rapamycin/mycophenolic acid EVA/BMA basecoat, porcine pharmacokinetics studies (FIG. 53, 54); details: EVA/BMA basecoat 600 μg with 180 μg each drug, no or 100/200 μg BMA topcoat
[3] = test system: human coronary artery smooth muscle cell proliferation; experiment: In vitro cell culture study, coronary artery smooth muscle cell proliferation (FIG. 51); format: cell-based
Description: FIG. 51 is a graph of the inhibition of coronary artery smooth muscle cells by trichostatin A in a cell culture study.

cell viability = experiment: Cell viability assay; format: cell-based
[4] = test system: human coronary artery smooth muscle cells; experiment: Anti-proliferative activity in synchronized cultured cells stimulated with two percent fetal bovine serum; details: synchronized cells treated with rapamycin
[5] = test system: human smooth muscle cells; experiment: Cladribine Example, PDGF-stimulated proliferation of smooth muscle cells; format: cell-based
Method: (§1) To assess the ability of cladribine to prevent cell proliferation, human smooth muscle or endothelial cells (Clonetics, Walkersville, Md.) were seeded at a density of 2000 cells/cm^2 (approximately 3600 cells/well) into each well of 12-well plates and cultured with 1.5 ml of growth medium containing five percent fetal calf serum (FCS). After twenty-four hours, the growth medium was changed and fresh medium containing 10 ng/ml platelet-derived growth factor AB (PDGF AB; LIFE Technologies), as well as various concentrations of cladribine (0.001-10,000 nM) were added with triplicate wells. Medium was replaced with fresh cladribine-containing medium after three days. On day six, cells were detached by trypsinization to yield a cell suspension, lightly centrifuged to pellet and then counted manually using a Neubauer hemocytometer system. Cell viability was assessed by trypan blue exclusion.

human endothelial cells = experiment: Cladribine Example, PDGF-stimulated proliferation of endothelial cells; format: cell-based; details: EC, Cladribine 10.000 nM
Method: as §1

[6] = In vivo release kinetics of cladribine from PVDF/HFP coating on Bx Velocity stents (FIG. 61); details: PVDF/HFP 85/15 basecoat 1800 μg (30 % cladribine), 300 μg topcoat, Yorkshire pig
Description: FIG. 61 is a graphical representation of the in vivo release kinetics of cladribine from a polymeric coating on Bx Velocity® stents, available from Cordis Corporation, implanted in a Yorkshire pig. The basecoat comprises an 85/15 ratio of PVDF and HFP and cladribine for a total combined weight of one thousand eight hundred micrograms (cladribine comprising thirty percent of the total weight). The topcoat comprises an 85/15 ratio of PVDF/HFP and no cladribine. The total weight of the topcoat is three hundred micrograms.

[7] = In vivo release kinetics from rapamycin/cladribine EVA/BMA basecoat, porcine pharmacokinetics studies (FIG. 62, 63); details: EVA/BMA basecoat with 200 μg BMA topcoat, Yorkshire pigs
Description: (§2) The basecoat is applied to Bx Velocity® stents and implanted into Yorkshire pigs.
as §2

COc1c(C)c2c(c(O)c1C/C=C(\C)CCC(=O)O)C(=O)OC2 [mycophenolic acid]
effect of addition on the anti-proliferative rapamycin dose response curve [1]: potentiates the anti-proliferative activity of rapamycin
in vivo release from stent coating compared with rapamycin [2]: elutes more completely over a shorter duration than the rapamycin

CC(/C=C/C(=O)NO)=C\[C@@H](C)C(=O)c1ccc(N(C)C)cc1 [trichostatin A]
inhibition of human coronary artery smooth muscle cell proliferation [3]: completely inhibit
pIC50 ([3]; read-out: anti-proliferative IC50): ~8.22

COc1cc([C@@H]2c3cc4c(cc3[C@@H](O[C@@H]3O[C@@H]5CO[C@@H](C)O[C@H]5[C@H](O)[C@H]3O)[C@H]3COC(=O)[C@H]23)OCO4)cc(OC)c1O [etoposide]
effect of addition on the anti-proliferative rapamycin dose response curve [1]: potentiate the anti-proliferative activity of rapamycin
cytotoxicity in cell viability assay (cell viability; concentrations up to ten micromolar): non-cytotoxic
effect of addition on the anti-proliferative rapamycin dose response curve [4]: increases the percent inhibition of rapamycin alone

CC[C@@]1(O)C(=O)OCc2c1cc1n(c2=O)Cc2cc3c(CN(C)C)c(O)ccc3nc2-1 [topotecan]
cytotoxicity in cell viability assay (cell viability; concentrations up to one micromolar): non-cytotoxic
effect of addition on the anti-proliferative rapamycin dose response curve [4]: potentiate the anti-proliferative activity of rapamycin

Nc1nc(Cl)nc2c1ncn2[C@H]1C[C@H](O)[C@@H](CO)O1 [Cladribine, 2-chlorodeoxyadenosine]
% of PDGF-stimulated increase in cell count ([5]; SMC, Cladribine 10.000 nM): −4%
potency on smooth muscle cells relative to endothelial cells ([5]; from IC50 values 23 and 40 nanomolar): approximately twice as potent
% of PDGF-stimulated increase in cell count (human endothelial cells): 10%
effect of addition on the anti-proliferative rapamycin dose response curve [1]: potentiate the anti-proliferative activity of rapamycin
inhibition of human coronary artery smooth muscle cell proliferation ([1]; non-synchronized cells, two percent fetal bovine serum (FIG. 58)): completely inhibits
in vivo elution from stent coating over time [6]: after the first day, the elution of cladribine levels off significantly
in vivo elution from stent coating compared with rapamycin [7]: elutes more rapidly than rapamycin
